In ChEMBL document CHEMBL1123770, “Systematic synthesis and biological evaluation of alpha- and beta-D-lyxofuranosyl nucleosides of the five naturally occurring nucleic acid bases” (1987):
Values after ≈ are worked out from the molar mass of the structure shown.

Tests used:
[1] = system: HeLa; assay: Minimum inhibitory concentration (MIC) required to reduce virus-induced cytopathogenicity by 50% against Coxsackie virus B4 in HeLa cells; assay type: functional; conditions: Homo sapiens
[2] = system: HeLa; assay: Minimum cytotoxic concentration (MCC) required to cause a microscopically detectable alteration of host cell morphology, when incubated with HeLa cells; assay type: functional; conditions: Homo sapiens
[3] = Minimum cytotoxic concentration (MCC) required to cause a microscopically detectable alteration of host cell morphology, when incubated with PRK cells; assay type: functional; conditions: Oryctolagus cuniculus
[4] = system: Vero; assay: Minimum cytotoxic concentration (MCC) required to cause a microscopically detectable alteration of host cell morphology, when incubated with Vero B cells; assay type: functional; conditions: Chlorocebus sabaeus
[5] = system: Vero; assay: Minimum inhibitory concentration (MIC) required to reduce virus-induced cytopathogenicity by 50% against Coxsackie virus B4 in African green monkey kidney (Vero B)cells; assay type: functional, Chlorocebus sabaeus; conditions: Chlorocebus sabaeus; read-out: MIC
[6] = system: WI-38; assay: Minimum cytotoxic concentration (MCC) required to cause a microscopically detectable alteration of host cell morphology, when incubated with WI-38 cells; assay type: functional; conditions: Homo sapiens
[7] = system: WI-38; assay: Minimum inhibitory concentration (MIC) required to reduce virus-induced cytopathogenicity by 50% against Rhinovirus 9 in human diploid (WI-38)cells; assay type: functional; conditions: Homo sapiens; read-out: MIC
[8] = system: WI-38; assay: Minimum inhibitory concentration (MIC) required to reduce virus-induced cytopathogenicity by 50% against Rhinovirus-1A in human diploid (WI-38)cells; assay type: functional
[9] = system: Vero; assay: Minimum inhibitory concentration (MIC) required to reduce virus-induced cytopathogenicity by 50% against Parainfluenza virus-3 in African green monkey kidney (Vero B)cells; assay type: functional, Chlorocebus sabaeus; conditions: Chlorocebus sabaeus; read-out: MIC
[10] = system: Vero; assay: Minimum inhibitory concentration (MIC) required to reduce virus-induced cytopathogenicity by 50% against Reo virus-1 in African green monkey kidney (Vero B)cells; assay type: functional, Chlorocebus sabaeus; conditions: Chlorocebus sabaeus; read-out: MIC
[11] = system: Vero; assay: Minimum inhibitory concentration (MIC) required to reduce virus-induced cytopathogenicity by 50% against forest virus in African green monkey kidney (Vero B)cells; assay type: functional; conditions: Chlorocebus sabaeus
[12] = system: Vero; assay: Minimum inhibitory concentration (MIC) required to reduce virus-induced cytopathogenicity by 50% against Sindbis virus in African green monkey kidney (Vero B)cells; assay type: functional; conditions: Chlorocebus sabaeus
[13] = species on record: Oryctolagus cuniculus; assay: Minimum inhibitory concentration (MIC) required to reduce virus-induced cytopathogenicity by 50% against G strain of Herpes simplex virus-2 in primary rabbit kidney cells; assay type: functional; conditions: Oryctolagus cuniculus; read-out: MIC
[14] = species on record: Oryctolagus cuniculus; assay: Minimum inhibitory concentration (MIC) required to reduce virus-induced cytopathogenicity by 50% against KOS strain of Herpes simplex virus-1 in primary rabbit kidney cells; assay type: functional
[15] = species on record: Oryctolagus cuniculus; assay: Minimum inhibitory concentration (MIC) required to reduce virus-induced cytopathogenicity by 50% against Vaccinia virus in primary rabbit kidney cells; assay type: functional; conditions: Oryctolagus cuniculus; read-out: MIC

Row | SMILES | MIC [1] | MCC [2] | MCC [3] | MCC [4] | MIC [5] | MCC [6] | MIC [7] | MIC [8] | MIC [9] | MIC [10] | MIC [11] | MIC [12] | MIC [13] | MIC [14] | MIC [15]
1 | Cc1cn([C@H]2O[C@H](CO)[C@H](O)[C@@H]2O)c(=O)[nH]c1=O | > 400 µg/mL | > 400 µg/mL | > 400 µg/mL | > 400 µg/mL | > 400 µg/mL | > 400 µg/mL | > 400 µg/mL | > 400 µg/mL | > 400 µg/mL | > 200 µg/mL | > 400 µg/mL | > 400 µg/mL | > 400 µg/mL | > 400 µg/mL | –
2 | Nc1ccn([C@H]2O[C@H](CO)[C@H](O)[C@@H]2O)c(=O)n1 | > 400 µg/mL | > 400 µg/mL | > 400 µg/mL | > 400 µg/mL | > 400 µg/mL | > 400 µg/mL | > 400 µg/mL | > 400 µg/mL | > 400 µg/mL | > 400 µg/mL | > 400 µg/mL | > 400 µg/mL | > 400 µg/mL | > 400 µg/mL | –
3 | Nc1nc2c(ncn2[C@@H]2O[C@H](CO)[C@H](O)[C@@H]2O)c(=O)[nH]1 | > 400 µg/mL | > 400 µg/mL | > 400 µg/mL | > 400 µg/mL | > 400 µg/mL | > 400 µg/mL | > 400 µg/mL | > 400 µg/mL | > 400 µg/mL | > 400 µg/mL | > 400 µg/mL | > 400 µg/mL | 400 µg/mL (≈ 1410 µM) | > 400 µg/mL | 100 µg/mL (≈ 353 µM)
4 | O=c1ccn([C@@H]2O[C@H](CO)[C@H](O)[C@@H]2O)c(=O)[nH]1 | > 400 µg/mL | > 400 µg/mL | > 400 µg/mL | > 400 µg/mL | > 100 µg/mL | > 400 µg/mL | 100 µg/mL (≈ 409 µM) | > 400 µg/mL | > 400 µg/mL | > 400 µg/mL | > 400 µg/mL | > 400 µg/mL | > 400 µg/mL | > 400 µg/mL | –
5 | Nc1ccn([C@@H]2O[C@H](CO)[C@H](O)[C@@H]2O)c(=O)n1 | > 200 µg/mL | > 200 µg/mL | > 200 µg/mL | > 200 µg/mL | > 200 µg/mL | > 200 µg/mL | > 200 µg/mL | > 200 µg/mL | > 100 µg/mL | > 200 µg/mL | > 200 µg/mL | > 100 µg/mL | > 200 µg/mL | > 200 µg/mL | 70 µg/mL (≈ 288 µM)
